The values that follow come from ChEMBL document CHEMBL4665873, “Exploring the physicochemical and antiproliferative properties of biaryl-linked [13]-macrodilactones” (2020).

This assay can be described thus: Antiproliferative activity against mouse ASZ cells assessed as reduction in cell viability after 72 hrs by MTS/PMS assay. It is filed as functional.
The GI50 is the concentration that inhibits growth by half. Take `CN(C)c1cccc(-c2ccc(C3C/C=C/CCC(=O)OCCCOC3=O)cc2)c1` (stereo not drawn): the GI50 is no less than 75 µM.
As for `O=C1CC/C=C/CC(c2ccc(-c3cccc(O)c3)cc2)C(=O)OCCCO1` (stereo not drawn), the GI50 stood at 12.1 µM.
For `O=C1CC/C=C/CC(c2ccc(-c3ccncc3)cc2)C(=O)OCCCO1` (stereo not drawn) the value was no less than 75 µM; for `O=C1CC/C=C/CC(c2ccc(-c3cnn(Cc4ccccc4)c3)cc2)C(=O)OCCCO1` (stereo not drawn), no less than 100 µM.
The result for `O=C1CC/C=C/CC(c2ccc(-c3ccccc3)cc2)C(=O)OCCCO1` (stereo not drawn) reads no less than 100 µM; that for `COc1cc(-c2ccc(C3C/C=C/CCC(=O)OCCCOC3=O)cc2)c(OC)nn1` (stereo not drawn), 19.7 µM.
For `O=C1CC/C=C/CC(c2ccc(-c3cccnc3)cc2)C(=O)OCCCO1` (stereo not drawn) the value was 40.9 µM; for `Cc1noc(C)c1-c1ccc(C2C/C=C/CCC(=O)OCCCOC2=O)cc1` (stereo not drawn), no less than 75 µM.
